From PMC11731258, “The structural basis for high-affinity c-di-GMP binding to the GSPII-B domain of the traffic ATPase PilF from Thermus thermophilus” (The Journal of Biological Chemistry, 2024)

Target: T1, PilF159-302 (GSPII-B domain) (Thermus thermophilus, UniProt Q5SLC9)
T1 sequence (Q5SLC9 159-302): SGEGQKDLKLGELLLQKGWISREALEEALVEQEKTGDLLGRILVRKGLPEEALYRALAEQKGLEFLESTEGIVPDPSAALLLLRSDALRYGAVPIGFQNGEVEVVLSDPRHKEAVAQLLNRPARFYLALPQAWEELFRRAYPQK
Assay: ITC binding to PilF159-302
Method: To assess the ligand-binding capabilities of the various PilF constructs, triplicates of ITC measurements were recorded for each construct. The measurements were carried out using a MicroCal ITC200 (Malvern Panalytical). […] All protein samples were extensively dialyzed against the sample buffer and the buffer used for dialysis was used to dilute protein and c-di-GMP samples in preparation for the ITC measurements. Each measurement was conducted using the following protocol. In total, 39.8 μl c-di-GMP were titrated to 270 μl protein in 20 separate injections in 180 s intervals with a stirring speed of 750 rpm. After an initial delay of 120 s, the first injection of 0.2 μl c-di-GMP with a duration of 0.4 s was followed by 19 injections of 2 μl with a duration of 4 s. During the measurement, the feedback mode was set to high and the reference power to 11 μcal s^−1. To optimize precision of the measurements, protein and c-di-GMP concentrations were adjusted to the binding capabilities of the respective constructs and ranged from 5 to 200 μM for protein and 50 to 2000 μM for c-di-GMP. All thermograms were processed using Origin 7.0 (OriginLab) using a one-site– or two-site–binding model dependent on the number of expected binding events.

## O=c1[nH]cnc2c1ncn2[C@@H]1O[C@@H]2COP(=O)(O)O[C@H]3[C@@H](O)[C@H](n4cnc5c(=O)[nH]cnc54)O[C@@H]3COP(=O)(O)O[C@H]2[C@H]1O [c-di-IMP, cyclic dimeric inosine-monophosphate]
  Kd: 60 ± 1 nM
ITC, 20 °C
  N: 0.74 ± 0.03
  ΔH: -7.103 ± 0.234 kcal/mol
  ΔS: 8.8 ± 0.8 cal/mol/deg
